Patent publication US20210275518A1, “METHODS OF USING REBASTINIB IN THE TREATMENT OF DISORDERS” (Deciphera Pharmaceuticals, LLC, priority 2020, published 2021)

How the values were obtained:
TIE2 = assay: Pharmacodynamics: circulating Ang-2 levels (Part 1); type: in vivo, human; details: with exposure to higher doses of rebastinib in combination with paclitaxel; indicating TIE2 inhibition
From the text: This is an open-label Phase 1b/2 multicenter study in patients with advanced or metastatic solid tumors where paclitaxel may be considered appropriate treatment. Rebastinib will be administered in combination with paclitaxel in repeated 28-day cycles to primarily assess the safety, tolerability and preliminary efficacy of the combination. Adverse events (AEs) will be assessed, and laboratory values, vital sign measurements, electrocardiograms (ECGs), ophthalmologic examinations, physical examinations and Eastern Cooperative Oncology Group (ECOG) Performance Status (PS) will be obtained to evaluate the safety and tolerability of rebastinib when administered in combination with paclitaxel. Pharmacokinetic (PK) and pharmacodynamic (PD) samples will be collected at pre-specified time points.

ovarian cancer = assay: Phase 1b/2 rebastinib + paclitaxel, Part 2 Cohort 3 (RECIST v1.1, CA-125 response); type: in vivo, human
From the text: Upon determination of the RP2D, Part 2 is initiated to dose up to 165 evaluable patients using the RP2D across five indication-specific cohorts. A Simon's two-stage design is applied to Part 2 to further evaluate the safety, tolerability, and preliminary efficacy of rebastinib in combination with paclitaxel in triple-negative breast (Cohort 1), inflammatory breast (Cohort 2), ovarian (Cohort 3), endometrial adenocarcinoma (Cohort 4), and gynecologic carcinosarcoma (Cohort 5) cancers. Each cohort initially enrolls up to 18 evaluable patients in the first stage. Patients must receive at least 1 dose of the combination and have 1 post-baseline assessment (including assessment of clinical progression) or be discontinued prior to the postbaseline disease assessment due to an AE at least possibly related to rebastinib, to be considered evaluable. Tumor response is assessed according to Response Evaluation Criteria in Solid Tumors (RECIST) Version 1.1. The decision to enroll patients beyond the first stage is based on response assessments obtained after the first post-dose response assessment of the last patient enrolled in the first stage of a cohort. […] If ≤4 responses are seen in a cohort, the cohort will be terminated. If >4 responses are seen prior to the last evaluable patient in the first stage, expanding the cohort may be triggered earlier. Enrollment in each cohort will pause between the first and second stage of the Simon two-stage for evaluation of response. Patients will receive study treatment until they develop progressive disease, experience unacceptable toxicity, or withdraw consent.
29 patients with ovarian cancer were enrolled in this portion of the study as a safety population. Patients were treated with rebastinib (50 or 100 mg BID) in combination with 80 mg/m^2 intravenous weekly paclitaxel (day 1, day 8, and day 15 of repeated 28-day cycles). 10 of the patients treated with rebastinib were at a starting dose of 100 mg BID and 80 mg/m^2 weekly paclitaxel, of which the doses of 7 were reduced to 50 mg BID and 80 mg/m^2 weekly paclitaxel, and […] were at a starting dose of 50 mg BID and 80 mg/m^2 weekly paclitaxel. 23 (79%) patients received ≥4 prior anticancer regimens, and all patients received prior platinum and taxane-based therapy; 89% received anti-angiogenic therapy, 62% received anti-PARP therapy, and 31% received immunotherapy.
24 of the 29 patients met the modified intention-to-treat (mITT) criteria. Anti-tumor activity was assessed using RECIST v1.1 and Gynecological Cancer Intergroup CA-125 response. From 24 patients in the mITT population, the objective response rate was 38% and the clinical benefit rate at 8 weeks was 88%.
38 patients in a platinum-resistant ovarian cancer cohort were enrolled in this portion of the study as a safety population. Patients were treated with rebastinib (50 or 100 mg BID) in combination with 80 mg/m^2 intravenous weekly paclitaxel (day 1, day 8, and day 15 of repeated 28-day cycles). 34 of the 38 patients met the met the modified intention-to-treat (mITT) criteria. 27 (71%) patients received ≥4 prior anticancer regimens, and 97% patients received prior platinum and taxane-based therapy; 84% received bevacizumab, 66% received a PARP inhibitor, 31% received immunotherapy, and the average number of lines of therapy after platinum resistance was 2.

[1] = Cohort 3, time point 1, of the twelve with stable disease at Cycle 3, Day 1, Cycle 5, Day 1
[2] = Cohort 3, time point 1, rebastinib + paclitaxel, Cycle 3, Day 1
[3] = Cohort 3, time point 2, 17 evaluable patients
[4] = Table 1, Cohort 3, time point 4, mITT N = 34, patients (%)
[5] = Table 1, Cohort 3, time point 4, n 12

CNC(=O)c1cc(Oc2ccc(NC(=O)Nc3cc(C(C)(C)C)nn3-c3ccc4ncccc4c3)c(F)c2)ccn1 [rebastinib]
Mean circulating Ang-2 levels (TIE2): increased | Patients with partial response (ovarian cancer; [1]): three | Patients with stable disease (ovarian cancer; [1]): four | Patients with partial response (second statement) (ovarian cancer; Cohort 3, time point 1, of the twelve with stable disease at Cycle 3, Day 1, Cycle 5, Day 1 (stated a second time)): one | Patients with stable disease (ovarian cancer; Cohort 3, time point 1, of the twelve with stable disease at Cycle 3, Day 1, Cycle 5, Day 8): one | Patients with stable disease (ovarian cancer; Cohort 3, time point 1, of the twelve with stable disease at Cycle 3, Day 1, Cycle 8, Day 1): two | Patients with partial response (ovarian cancer; Cohort 3, time point 1, of the two with partial response at Cycle 3, Day 1, Cycle 5, Day 1): one | Patients with partial response (ovarian cancer; [2]): Two | Patients with stable disease (ovarian cancer; [2]): twelve | CBR (ovarian cancer; [3]): 82% | ORR (ovarian cancer; [3]): 29% | Stable diseases (ovarian cancer; [3]): 9 | Partial responses (ovarian cancer; Cohort 3, time point 2, 17 evaluable patients, rebastinib 100 or 50 mg BID + paclitaxel): 5 | Muscular weakness, patients (ovarian cancer; Cohort 3, time point 2, initially 100 mg BID rebastinib (10 patients)): 4 patients | Muscular weakness at reduced dose (ovarian cancer; Cohort 3, time point 2, reduced dose of 50 mg BID): No additional muscular weakness | CA-125 response, patients (ovarian cancer; Cohort 3, time point 3, 17 patients with CA-125 measurements): 10 (59%) | Clinical benefit rate at 8 weeks (ovarian cancer; Cohort 3, time point 3, 24 patients mITT): 88% | Objective response rate (ovarian cancer; Cohort 3, time point 3, 24 patients mITT, rebastinib 50 or 100 mg BID with weekly paclitaxel 80 mg/m^2): 38% | CA-125 response (ovarian cancer; Cohort 3, time point 4, 17 of 26 evaluable patients): 65.4% | Clinical benefit rate at 8 weeks (ovarian cancer; Cohort 3, time point 4, 34 patients mITT): 88% | Objective response rate (confirmed+unconfirmed) (ovarian cancer; Cohort 3, time point 4, platinum-resistant ovarian cancer, 34 patients mITT, rebastinib 50 or 100 mg BID with weekly paclitaxel 80 mg/m^2): 35% | Best Overall Response: Confirmed Partial Response (ovarian cancer; [4]): 5 (14.7%) | Best Overall Response: Not Evaluable (ovarian cancer; [4]): 3 (8.8%) | Best Overall Response: Partial Response (ovarian cancer; [4]): 12 (35.3%) | Best Overall Response: Progressive Disease (ovarian cancer; [4]): 1 (2.9%) | Best Overall Response: Single Response Awaiting Confirmation (ovarian cancer; [4]): 4 (11.8%) | Best Overall Response: Stable Disease (ovarian cancer; [4]): 18 (52.9%) | Best Overall Response: Unconfirmed Single Response (ovarian cancer; [4]): 3 (8.8%) | Duration of Response, Events (%) (ovarian cancer; [5]): 5 (41.7%) | Time to Response, Mean (SD) (ovarian cancer; [5]): 3.1 (1.3) | Duration of Response, Kaplan-Meier Median (80% CI) (ovarian cancer; Table 1, Cohort 3, time point 4, n 12, NE: Not evaluated): 5.5 (1.9, NE)
